Measured values as given in ChEMBL document CHEMBL5325413, “Optimization of BAX trigger site activator BTSA1 with improved antitumor potency and in vitro ADMET properties” (Eur J Med Chem, 2023).
Calls of active or inactive are those of the source. No cut-off for these calls is given here.

Legend:
[1] = mouse, 1 h, 100 µM
[2] = tested on: A549; assay: Induction of apoptosis in human A549 cells assessed as late apoptotic cells at 20 uM incubated for 48 hrs by Annexin V-FITC/PI staining based flow cytometry analysis (reference value: 2.52%); type: functional
[3] = in vitro; settings: mouse, liver microsomes
[4] = Stability in rat plasma assessed as half life; type: ADME, cell-free
[5] = tested on: A549; assay: Induction of apoptosis in human A549 cells assessed as formation of apoptotic bodies at 20 to 80 uM incubated for 48 hrs by Hoechst 33342 staining based fluorescence microscopic analysis; type: functional, cell-based; settings: dose 20-80 µM
[6] = tested on: MDA-MB-231; assay: Antiproliferative activity against human MDA-MB-231 cells expressing BAX assessed as cell growth inhibition incubated for 72 hrs by MTT assay; type: functional
[7] = in vitro; settings: human, liver microsomes
[8] = tested on: A549; assay: Induction of apoptosis in human A549 cells assessed as early apoptotic cells at 20 uM incubated for 48 hrs by Annexin V-FITC/PI staining based flow cytometry analysis (reference value: 1.09 %); type: functional
[9] = tested on: A549; assay: Induction of apoptosis in human A549 cells assessed as live cells at 40 uM incubated for 48 hrs by Annexin V-FITC/PI staining based flow cytometry analysis (reference value: 95.9 %); type: functional
[10] = tested on: A549; assay: Induction of cell cycle arrest in human A549 cells assessed as accumulation of cells at S phase at 10 uM incubated for 48 hrs by RNase/PI staining based flow cytometry analysis (reference value: 26.01%); type: functional
[11] = tested on: A549; assay: Induction of apoptosis in human A549 cells assessed as cell rounding at 20 to 80 uM incubated for 48 hrs by Hoechst 33342 staining based fluorescence microscopic analysis; type: functional; settings: dose 20-80 µM
[12] = tested on: PC-3; assay: Antiproliferative activity against human PC-3 cells assessed as cell growth inhibition incubated for 72 hrs by MTT assay; type: functional
[13] = tested on: HCT-116; assay: Antiproliferative activity against human HCT-116 cells assessed as cell growth inhibition incubated for 72 hrs by MTT assay; type: functional
[14] = human, microsomes, 1 h, 100 µM
[15] = tested on: A549; assay: Induction of apoptosis in human A549 cells assessed as total apoptotic cells at 10 uM incubated for 48 hrs by Annexin V-FITC/PI staining based flow cytometry analysis (reference value: 2.86%); type: functional
[16] = mouse, microsomes, 1 h, 100 µM
[17] = Metabolic stability in human liver microsomes assessed as parent compound remaining at 100 uM incubated for 60 mins in presence of NADPH by LC-MS/MS analysis
[18] = Stability in rat plasma assessed as compound remaining measured after 120 mins; type: ADME, cell-free; settings: read-out: Stability
[19] = tested on: A549; assay: Inhibition of colony formation in human A549 cells at 20 uM incubated for 2 weeks by crystal violet staining based analysis; type: functional, cell-based
[20] = tested on: A549; assay: Induction of apoptosis in human A549 cells assessed as live cells at 20 uM incubated for 48 hrs by Annexin V-FITC/PI staining based flow cytometry analysis (reference value: 95.9 %); type: functional
[21] = tested on: K562; assay: Antiproliferative activity against human K562 cells expressing BAX assessed as cell growth inhibition incubated for 72 hrs by trypan blue cell counting analysis; type: functional
[22] = Metabolic stability in human liver microsomes assessed as parent compound remaining at 100 uM incubated for 60 mins in absence of NADPH by LC-MS/MS analysis
[23] = tested on: A549; assay: Induction of cell cycle arrest in human A549 cells assessed as accumulation of cells at G2/M phase at 10 uM incubated for 48 hrs by RNase/PI staining based flow cytometry analysis (reference value: 18.97%); type: functional
[24] = tested on: A549; assay: Induction of apoptosis in human A549 cells assessed as late apoptotic cells at 10 uM incubated for 48 hrs by Annexin V-FITC/PI staining based flow cytometry analysis (reference value: 2.15%); type: functional
[25] = Stability in rat plasma assessed as compound remaining measured after 30 mins; type: ADME, cell-free; settings: read-out: Stability
[26] = tested on: THP-1; assay: Antiproliferative activity against human THP-1 cells expressing BAX assessed as cell growth inhibition incubated for 72 hrs by trypan blue cell counting analysis; type: functional
[27] = tested on: A549; assay: Induction of apoptosis in human A549 cells assessed as live cells at 10 uM incubated for 48 hrs by Annexin V-FITC/PI staining based flow cytometry analysis (reference value: 96.4%); type: functional
[28] = tested on: A549; assay: Induction of apoptosis in human A549 cells assessed as total apoptotic cells at 20 uM incubated for 48 hrs by Annexin V-FITC/PI staining based flow cytometry analysis (reference value: 4.26%); type: functional
[29] = tested on: NCI-H1581; assay: Antiproliferative activity against human NCI-H1581 cells expressing BAX assessed as cell growth inhibition incubated for 72 hrs by MTT assay; type: functional
[30] = tested on: A549; assay: Induction of apoptosis in human A549 cells assessed as dead cells at 10 uM incubated for 48 hrs by Annexin V-FITC/PI staining based flow cytometry analysis (reference value: 0.739%); type: functional
[31] = Stability in rat plasma assessed as compound remaining measured after 10 mins; type: ADME, cell-free; settings: read-out: Stability
[32] = tested on: A549; assay: Induction of apoptosis in human A549 cells assessed as early apoptotic cells at 10 uM incubated for 48 hrs by Annexin V-FITC/PI staining based flow cytometry analysis (reference value: 0.708%); type: functional
[33] = tested on: A549; assay: Induction of apoptosis in human A549 cells assessed as total apoptotic cells at 40 uM incubated for 48 hrs by Annexin V-FITC/PI staining based flow cytometry analysis (reference value: 4.26%); type: functional
[34] = tested on: A549; assay: Induction of cell cycle arrest in human A549 cells assessed as accumulation of cells at G0/G1 phase at 10 uM incubated for 48 hrs by RNase/PI staining based flow cytometry analysis (reference value: 54.82%); type: functional
[35] = tested on: A549; assay: Induction of apoptosis in human A549 cells assessed as dead cells at 40 uM incubated for 48 hrs by Annexin V-FITC/PI staining based flow cytometry analysis (reference value: 0.535%); type: functional
[36] = Stability in rat plasma assessed as compound remaining measured after 60 mins; type: ADME, cell-free; settings: read-out: Stability
[37] = tested on: A549; assay: Induction of apoptosis in human A549 cells assessed as nuclear fragmentation at 20 to 80 uM incubated for 48 hrs by Hoechst 33342 staining based fluorescence microscopic analysis; type: functional, cell-based; settings: dose 20-80 µM
[38] = tested on: A549; assay: Induction of apoptosis in human A549 cells assessed as late apoptotic cells at 40 uM incubated for 48 hrs by Annexin V-FITC/PI staining based flow cytometry analysis (reference value: 2.52%); type: functional
[39] = Stability in rat plasma assessed as compound remaining measured immediately; type: ADME, cell-free; settings: read-out: Stability
[40] = Metabolic stability in mouse liver microsomes assessed as parent compound remaining at 100 uM incubated for 60 mins in absence of NADPH by LC-MS/MS analysis
[41] = tested on: A549; assay: Induction of apoptosis in human A549 cells assessed as dead cells at 20 uM incubated for 48 hrs by Annexin V-FITC/PI staining based flow cytometry analysis (reference value: 0.535%); type: functional
[42] = tested on: A549; assay: Antiproliferative activity against human A549 cells assessed as reduction in cell viability at 5 to 25 uM by MTT assay; type: functional, cell-based; settings: dose 5-25 µM, time 24-72 hrs, TDE = time-dependent effect
[43] = tested on: MV4-11; assay: Antiproliferative activity against human MV4-11 cells expressing BAX assessed as cell growth inhibition incubated for 72 hrs by trypan blue cell counting analysis; type: functional
[44] = tested on: A549; assay: Antiproliferative activity against human A549 cells assessed as cell growth inhibition incubated for 72 hrs by MTT assay; type: functional
[45] = Metabolic stability in mouse liver microsomes assessed as parent compound remaining at 100 uM incubated for 60 mins in presence of NADPH by LC-MS/MS analysis

Q: For O=C1/C(=N\Nc2nccs2)C(c2ccccc2)=NN1c1nc(-c2ccccc2)cs1, which CLH [1] is on record?
A: 3.76 mL/h/kg

Q: What about the Activity [2] of the same molecule?
A: 2.7%

Q: What about the half-life at 1 h, 100 µM [3] of the same molecule?
A: 1.46 h

Q: What about the half-life [4] of the same molecule?
A: > 4.82 h

Q: What about the Activity [5] of the same molecule?
A: Active

Q: What about the GI50 [6] of the same molecule?
A: > 20 µM

Q: And the half-life at 1 h, 100 µM [7]?
A: 1.08 h

Q: And the Activity [8]?
A: 3.21%

Q: What about the Activity [9] of the same molecule?
A: 82.2%

Q: What about the Activity [10] of the same molecule?
A: 24.77%

Q: What about the Activity [11] of the same molecule?
A: Active

Q: What about the GI50 [12] of the same molecule?
A: 14.3 µM

Q: And the GI50 [13]?
A: 12.5 µM

Q: And the CLint [14]?
A: 21.3 µL/min/mg

Q: What about the Activity [15] of the same molecule?
A: 3.81%

Q: And the CLint [16]?
A: 15.8 µL/min/mg

Q: What about the remaining at 1 h, 100 µM [17] of the same molecule?
A: 55.6%

Q: And the remaining at 2 h [18]?
A: 98.6%

Q: And the inhibition [19]?
A: Active

Q: What about the Activity [20] of the same molecule?
A: 93.6%

Q: What about the GI50 [21] of the same molecule?
A: > 4 µM

Q: What about the remaining at 1 h, 100 µM [22] of the same molecule?
A: 94.2%

Q: What about the Activity [23] of the same molecule?
A: 10.12%

Q: What about the Activity [24] of the same molecule?
A: 2.97%

Q: What about the remaining at 0.5 h [25] of the same molecule?
A: 98.2%

Q: And the GI50 [26]?
A: > 10 µM

Q: And the Activity [27]?
A: 95.5%

Q: What about the Activity [28] of the same molecule?
A: 5.91%

Q: What about the GI50 [29] of the same molecule?
A: 6.22 µM

Q: What about the Activity [30] of the same molecule?
A: 0.651%

Q: What about the remaining at 10 min [31] of the same molecule?
A: 101%

Q: And the Activity [32]?
A: 0.844%

Q: And the Activity [33]?
A: 14.92%

Q: What about the Activity [34] of the same molecule?
A: 57.42%

Q: What about the Activity [35] of the same molecule?
A: 2.82%

Q: And the remaining at 1 h [36]?
A: 100%

Q: What about the Activity [37] of the same molecule?
A: Active

Q: And the Activity [38]?
A: 10.2%

Q: And the remaining at 0 min [39]?
A: 100%

Q: And the remaining at 1 h, 100 µM [40]?
A: 84.8%

Q: What about the Activity [41] of the same molecule?
A: 0.486%

Q: And the Activity [42]?
A: Tde

Q: What about the GI50 [43] of the same molecule?
A: 6.29 µM

Q: And the GI50 [44]?
A: 14.5 µM

Q: And the remaining at 1 h, 100 µM [45]?
A: 59.4%
